In ChEMBL document CHEMBL3044921, “Synthesis, characterization, and SAR studies of new (1H-indol-3-yl)alkyl-3-(1H-indol-3-yl)propanamide derivatives as possible antimicrobial and antitubercular agents” (2013):
Values after ≈ are worked out from the molar mass of the structure shown.

Assays:
Staphylococcus aureus [1] = experiment: Antibacterial activity against Staphylococcus aureus ATCC 25923 assessed as growth inhibition after 16 to 18 hr by serial plate dilution method; assay type: functional
Aspergillus fumigatus [2] = experiment: Antifungal activity against Aspergillus fumigatus NCIM 902 assessed as growth inhibition after 3 to 4 days by serial plate dilution method; assay type: functional
Escherichia coli [3] = assay type: functional, ATCC 24922
Description: Antibacterial activity against Escherichia coli ATCC 24922 assessed as growth inhibition at 1.56 to 25 ug/ml after 3 to 4 days by agar well diffusion method

Pseudomonas aeruginosa [4] = assay type: functional, ATCC 27853
Description: Antibacterial activity against Pseudomonas aeruginosa ATCC 27853 assessed as growth inhibition at 1.56 to 25 ug/ml after 3 to 4 days by agar well diffusion method

Klebsiella pneumoniae [5] = experiment: Antibacterial activity against Klebsiella pneumoniae assessed as growth inhibition after 16 to 18 hr by serial plate dilution method; assay type: functional
Streptococcus pyogenes [6] = experiment: Antibacterial activity against Streptococcus pyogenes assessed as growth inhibition after 16 to 18 hr by serial plate dilution method; assay type: functional
[7] = system: Trichophyton mentagrophytes; experiment: Antifungal activity against Trichophyton mentagrophytes assessed as growth inhibition after 3 to 4 days by serial plate dilution method; assay type: functional
[8] = system: Mycobacterium tuberculosis; experiment: Antitubercular activity against Mycobacterium tuberculosis H37Rv ATCC 27294 assessed as growth inhibition at 1 to 100 ug/mL after 7 days by resazurin reduction test; assay type: functional
Aspergillus flavus [9] = experiment: Antifungal activity against Aspergillus flavus NCIM 524 assessed as growth inhibition at […] to […] ug/ml after 3 to 4 days by agar well diffusion method; assay type: functional
Pseudomonas aeruginosa [10] = experiment: Antibacterial activity against Pseudomonas aeruginosa ATCC 27853 assessed as growth inhibition after 16 to 18 hr by serial plate dilution method; assay type: functional
[11] = system: Mycolicibacterium smegmatis; experiment: Antitubercular activity against Mycobacterium smegmatis ATCC 19420 assessed as growth inhibition at 0.3125 to 5 ug/mL after 7 days by resazurin reduction test; assay type: functional; details: ATCC 19420, 168 h
Escherichia coli [12] = experiment: Antibacterial activity against Escherichia coli […] assessed as growth inhibition after 16 to 18 hr by serial plate dilution method; assay type: functional
[13] = system: Mycobacterium tuberculosis; experiment: Antitubercular activity against Mycobacterium tuberculosis H37Rv ATCC 27294 assessed as growth inhibition at 0.3125 to 5 ug/mL after 7 days by resazurin reduction test; assay type: functional; details: H37Rv ATCC 27294, 168 h
Talaromyces marneffei [14] = experiment: Antifungal activity against Talaromyces marneffei assessed as growth inhibition at […] to […] ug/ml after 3 to 4 days by agar well diffusion method; assay type: functional
[15] = system: Mycolicibacterium fortuitum; experiment: Antitubercular activity against Mycobacterium fortuitum ATCC 19542 assessed as growth inhibition at 1 to 100 ug/mL after 7 days by resazurin reduction test; assay type: functional; details: ATCC 19542, 168 h
Aspergillus flavus [16] = experiment: Antifungal activity against Aspergillus flavus NCIM 524 assessed as growth inhibition after 3 to 4 days by serial plate dilution method; assay type: functional
Talaromyces marneffei [17] = experiment: Antifungal activity against Talaromyces marneffei assessed as growth inhibition after 3 to 4 days by serial plate dilution method; assay type: functional
Aspergillus fumigatus [18] = experiment: Antifungal activity against Aspergillus fumigatus NCIM 902 assessed as growth inhibition at […] to […] ug/ml after 3 to 4 days by agar well diffusion method; assay type: functional
[19] = system: Mycolicibacterium fortuitum; experiment: Antitubercular activity against Mycobacterium fortuitum ATCC 19542 assessed as growth inhibition at 0.3125 to 5 ug/mL after 7 days by resazurin reduction test; assay type: functional; details: ATCC 19542, 168 h
Candida albicans [20] = experiment: Antifungal activity against Candida albicans assessed as growth inhibition at […] to […] ug/ml after 3 to 4 days by agar well diffusion method; assay type: functional
Candida albicans [21] = experiment: Antifungal activity against Candida albicans assessed as growth inhibition after 3 to 4 days by serial plate dilution method; assay type: functional
Staphylococcus aureus [22] = assay type: functional, ATCC 25923
Description: Antibacterial activity against Staphylococcus aureus ATCC 25923 assessed as growth inhibition at 1.56 to 25 ug/ml after 3 to 4 days by agar well diffusion method

Klebsiella pneumoniae [23] = assay type: functional
Description: Antibacterial activity against Klebsiella pneumoniae assessed as growth inhibition at 1.56 to 25 ug/ml after 3 to 4 days by agar well diffusion method

Streptococcus pyogenes [24] = assay type: functional
Description: Antibacterial activity against Streptococcus pyogenes assessed as growth inhibition at 1.56 to 25 ug/ml after 3 to 4 days by agar well diffusion method

[25] = system: Mycolicibacterium smegmatis; experiment: Antitubercular activity against Mycobacterium smegmatis ATCC 19420 assessed as growth inhibition at 1 to 100 ug/mL after 7 days by resazurin reduction test; assay type: functional; details: ATCC 19420, 168 h
[26] = system: Trichophyton mentagrophytes; experiment: Antifungal activity against Trichophyton mentagrophytes assessed as growth inhibition at […] to […] ug/ml after 3 to 4 days by agar well diffusion method; assay type: functional

SMILES: Cc1[nH]c2ccc(OC(F)(F)F)cc2c1CCCNC(=O)CCc1c[nH]c2ccc(Cl)cc12
- MIC (Staphylococcus aureus [1]): 6.25 µg/mL (≈ 13.1 µM)
- MIC (Aspergillus fumigatus [2]): 6.25 µg/mL (≈ 13.1 µM)
- diameter of the inhibition zone (DIZ) (Escherichia coli [3]): 16 mm
- diameter of the inhibition zone (DIZ) (Pseudomonas aeruginosa [4]): 16 mm
- MIC (Klebsiella pneumoniae [5]): 6.25 µg/mL (≈ 13.1 µM)
- MIC (Streptococcus pyogenes [6]): 6.25 µg/mL (≈ 13.1 µM)
- MIC [7]: 6.25 µg/mL (≈ 13.1 µM)
- growth inhibition (GI) [8]: <90%
- MIC ([8]; Mycobacterium tuberculosis, H37Rv ATCC 27294, 168 h): 10 µg/mL (≈ 20.9 µM)
- diameter of the inhibition zone (DIZ) (Aspergillus flavus [9]): 16 mm
- MIC (Pseudomonas aeruginosa [10]): 6.25 µg/mL (≈ 13.1 µM)
- MIC [11]: 10 µg/mL (≈ 20.9 µM)
- MIC (Escherichia coli [12]): 6.25 µg/mL (≈ 13.1 µM)
- MIC [13]: 2.5 µg/mL (≈ 5.23 µM)
- diameter of the inhibition zone (DIZ) (Talaromyces marneffei [14]): 16 mm
- MIC [15]: 10 µg/mL (≈ 20.9 µM)
- MIC (Aspergillus flavus [16]): 6.25 µg/mL (≈ 13.1 µM)
- MIC (Talaromyces marneffei [17]): 6.25 µg/mL (≈ 13.1 µM)
- diameter of the inhibition zone (DIZ) (Aspergillus fumigatus [18]): 16 mm
- MIC [19]: 10 µg/mL (≈ 20.9 µM)
- diameter of the inhibition zone (DIZ) (Candida albicans [20]): 16 mm
- MIC (Candida albicans [21]): 6.25 µg/mL (≈ 13.1 µM)
- diameter of the inhibition zone (DIZ) (Staphylococcus aureus [22]): 16 mm
- diameter of the inhibition zone (DIZ) (Klebsiella pneumoniae [23]): 16 mm
- diameter of the inhibition zone (DIZ) (Streptococcus pyogenes [24]): 16 mm
- MIC [25]: 10 µg/mL (≈ 20.9 µM)
- diameter of the inhibition zone (DIZ) [26]: 16 mm
